# US20250320213A1, “Nitrogen-Containing Heterocyclic Compounds” (Pfizer Inc., priority 2024, published 2025)
# Like-named read-outs stand apart in the source and are kept apart here.
# Tests used:
# [1] = tested on: CCL17 secretion in peripheral human whole blood; assay: Human Whole Blood (HWB) CCL17 TR-FRET Assay (IL-13 stimulated CCL17 secretion); format: cell-based
# Summary of the method: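 Measured here: CCL17 in serum by TR-FRET (665/615 nm) after overnight (16 h) room-temperature detection. The blood, heparinized and compound-treated for 2 h, received IL-13 at 10 ng/mL final and was cultured 48 h at 37 °C.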
# [2] = biological target: T1, STAT6 (Homo sapiens, UniProt P42226); assay: STAT6 Reporter Luciferase Assay (IL-13 stimulated HaCaT keratinocyte NanoLuc reporter cells); format: cell-based; conditions: read-out: Reporter EC50
# T1 construct: stably transfected HaCaT keratinocyte cell line, which expresses NanoLuc luciferase reporter gene under the transcriptional control of the STAT6 responsive promoter; endogenous in cells; host or cells: HaCaT keratinocyte reporter cell line (stably transfected with a NanoLuc reporter)
# T1 sequence (P42226 1-847): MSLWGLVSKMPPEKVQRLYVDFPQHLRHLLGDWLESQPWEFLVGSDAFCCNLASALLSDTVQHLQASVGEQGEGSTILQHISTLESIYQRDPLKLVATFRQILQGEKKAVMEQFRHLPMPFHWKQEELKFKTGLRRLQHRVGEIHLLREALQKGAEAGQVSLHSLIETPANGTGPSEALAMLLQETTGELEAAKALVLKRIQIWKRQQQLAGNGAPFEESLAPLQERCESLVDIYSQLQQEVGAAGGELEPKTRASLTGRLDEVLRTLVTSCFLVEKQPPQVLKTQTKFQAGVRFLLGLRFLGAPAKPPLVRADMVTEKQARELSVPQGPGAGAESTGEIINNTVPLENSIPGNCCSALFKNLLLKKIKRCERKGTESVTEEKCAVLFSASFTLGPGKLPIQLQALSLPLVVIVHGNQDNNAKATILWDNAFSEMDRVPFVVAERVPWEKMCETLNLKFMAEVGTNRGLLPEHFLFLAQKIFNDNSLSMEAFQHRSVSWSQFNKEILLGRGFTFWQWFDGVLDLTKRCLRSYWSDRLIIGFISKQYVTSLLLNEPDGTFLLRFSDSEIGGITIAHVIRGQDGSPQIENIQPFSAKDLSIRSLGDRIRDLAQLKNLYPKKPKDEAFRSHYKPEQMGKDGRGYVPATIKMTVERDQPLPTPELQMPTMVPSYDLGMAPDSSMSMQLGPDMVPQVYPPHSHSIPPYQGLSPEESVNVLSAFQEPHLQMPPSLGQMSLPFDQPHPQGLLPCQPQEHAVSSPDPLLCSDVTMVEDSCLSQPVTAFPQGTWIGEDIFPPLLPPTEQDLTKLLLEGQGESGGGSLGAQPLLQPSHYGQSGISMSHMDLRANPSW
# Summary of the method: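 HaCaT IL-13Ra2-promoter NanoLuc reporter; cpd 2 h 37 °C in DMEM/2% HI FBS; IL-13 0.12 nM final, 4 h; Nano-Glo luminescence.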
# [3] = Homo sapiens, 48 h, human whole blood, 10 ng/mL IL13, 48 hours
# [4] = IL-13 stimulated HaCaT STAT6 NanoLuc reporter cells
# [5] = Homo sapiens, 48 h, inhibition of CCL17 secretion in human whole blood, 10 ng/mL IL13, 48 hours
# [6] = STAT6 NanoLuc luciferase reporter, IL-13 stimulated HaCaT keratinocyte cells
# [7] = Homo sapiens, 48 h, human whole blood, IL-13 stimulated
# [8] = human whole blood, IL-13 stimulated, 48 hours
SMILES,"EC50 [2, 4] [nM]","EC50 [2, 6] [nM]",other results
"CN[C@@H]1CCCN(C(=O)Nc2ccc(CNC(=O)c3nn(C(C)C)c4c3CN(c3ccc(C(=O)N(C)C)cc3)C[C@@H]4C)cc2F)C1 [Example 568, (S)-5-(4-(dimethylcarbamoyl)phenyl)-N-(3-fluoro-4-((R)-3-(methylamino)piperidine-1-carboxamido)benzyl)-1-isopropyl-7-methyl-4,5,6,7-tetrahydro-1H-pyrazolo[4,3-c]pyridine-3-carboxamide]",2,,"IC50 [1, 3]: 13 nM"
"CC(C)n1nc(C(=O)NCc2ccc(NC(=O)N3CC4(CCN(C)CC4)C3)c(F)c2)c2c1[C@@H](C)CN(c1ccc(C(=O)N(C)C)cn1)C2 [Example 608, (S)-5-(5-(dimethylcarbamoyl)pyridin-2-yl)-N-(3-fluoro-4-(7-methyl-2,7-diazaspiro[3.5]nonane-2-carboxamido)benzyl)-1-isopropyl-7-methyl-4,5,6,7-tetrahydro-1H-pyrazolo[4,3-c]pyridine-3-carboxamide]",1,,"IC50 [1, 3]: 16 nM"
"CN(C)C(=O)Nc1ccc(CNC(=O)c2nn(C)c3c2CC(c2ccc(C(=O)N(C)C)cc2)CC3)cc1 (racemic) [Example 26, rac-(R)-5-(4-(Dimethylcarbamoyl)phenyl)-N-(4-(3,3-dimethylureido)benzyl)-1-methyl-4,5,6,7-tetrahydro-1H-indazole-3-carboxamide]",,69,"IC50 [1, 5]: 561 nM"
"CCc1nc(C(=O)NCc2ccc(NC(=O)N(C)C)cc2)c2n1C(C)CN(c1ccc(C(=O)N(C)C)cc1)C2 (racemic) [Example 399, rac-(R)-7-(4-(dimethylcarbamoyl)phenyl)-N-(4-(3,3-dimethylureido)benzyl)-3-ethyl-5-methyl-5,6,7,8-tetrahydroimidazo[1,5-a]lpyrazine-1-carboxamide]",2,,"IC50 [1, 7]: 9 nM"
"CCn1nc(C(=O)NCc2ccc(NC(=O)N(C)C)cc2)c2c1CC(C(F)(F)F)N(c1ccc(C(=O)N(C)C)cn1)C2 (single isomer, unassigned) [Example 250, rel-(R or S)-5-(5-(dimethylcarbamoyl)pyridin-2-yl)-N-(4-(3,3-dimethylureido)benzyl)-1-ethyl-6-(trifluoromethyl)-4,5,6,7-tetrahydro-1H-pyrazolo[4,3-c]pyridine-3-carboxamide]",2,,"IC50 [1, 8]: 28 nM"
"CCC1CN(c2ccc(C(=O)N(C)C)cn2)Cc2c(C(=O)NCc3ccc(NC(=O)N(C)C)cc3)nn(C)c21 (single isomer, unassigned) [Example 58, rel-(R or S)-5-(5-(Dimethylcarbamoyl)pyridin-2-yl)-N-(4-(3,3-dimethylureido)benzyl)-7-ethyl-1-methyl-4,5,6,7-tetrahydro-1H-pyrazolo[4,3-c]pyridine-3-carboxamide]",,24,"IC50 ([1]; inhibition of CCL17 secretion in human whole blood, 10 ng/mL IL13, 48 hours): 170 nM"
"COC[C@@H]1CN(C(=O)Nc2ccc(CNC(=O)c3nn(C(C)C)c4c3CN(c3ccc(C(=O)N(C)C)cc3)C[C@@H]4C)cc2)CCN1 [Example 578, (S)-5-(4-(dimethylcarbamoyl)phenyl)-1-isopropyl-N-(4-((S)-3-(methoxymethyl)piperazine-1-carboxamido)benzyl)-7-methyl-4,5,6,7-tetrahydro-1H-pyrazolo[4,3-c]pyridine-3-carboxamide]",0.5,,"IC50 [1, 3]: 5 nM"
"CCn1nc(C(=O)NCc2ccc(NC(=O)N(C)C)cc2)c2c1[C@@H](C)CN(c1ncc(C(=O)N3Cc4cccnc4C3)cn1)C2 [Example 495, (S)-5-(5-(6,7-dihydro-5H-pyrrolo[3,4-b]pyridine-6-carbonyl)pyrimidin-2-yl)-N-(4-(3,3-dimethylureido)benzyl)-1-ethyl-7-methyl-4,5,6,7-tetrahydro-1H-pyrazolo[4,3-c]pyridine-3-carboxamide]",1,,"IC50 [1, 7]: 34 nM"
"CCn1nc(C(=O)NCc2ccc(NC(=O)N(C)C)cc2)c2c1[C@@H](C)CN(c1ccc(C(=O)N(C)C)cn1)C2 [Example 126, (S)-5-(5-(Dimethylcarbamoyl)pyridin-2-yl)-N-(4-(3,3-dimethylureido)benzyl)-1-ethyl-7-methyl-4,5,6,7-tetrahydro-1H-pyrazolo[4,3-c]pyridine-3-carboxamide]",,1,"IC50 [1, 5]: 5 nM"
"CCn1nc(C(=O)NCc2ccc(C(=O)NC)cc2)c2c1C(C(F)(F)F)CN(c1ccc(C(=O)N(C)C)cn1)C2 (single isomer, unassigned) [Example 467, rel-(R or S)-5-(5-(dimethylcarbamoyl)pyridin-2-yl)-1-ethyl-N-(4-(methylcarbamoyl)benzyl)-7-(trifluoromethyl)-4,5,6,7-tetrahydro-1H-pyrazolo[4,3-c]pyridine-3-carboxamide]",315,,"IC50 [1, 8]: 2500 nM"
"CN(C)C(=O)Nc1ccc(CNC(=O)c2nn(CC(C)(C)C)c3c2CN(c2ccc(C(=O)N(C)C)cn2)CC3)cc1 [Example 253, 5-(5-(dimethylcarbamoyl)pyridin-2-yl)-N-(4-(3,3-dimethylureido)benzyl)-1-neopentyl-4,5,6,7-tetrahydro-1H-pyrazolo[4,3-c]pyridine-3-carboxamide]",7,,"IC50 [1, 7]: 126 nM"
"CNC1CN(C(=O)Nc2ccc(CNC(=O)c3nn(C(C)C)c4c3CN(c3ccc(C(=O)N(C)C)cc3)C[C@@H]4C)cc2)C1 [Example 619, (S)-5-(4-(dimethylcarbamoyl)phenyl)-1-isopropyl-7-methyl-N-(4-(3-(methylamino)azetidine-1-carboxamido)benzyl)-4,5,6,7-tetrahydro-1H-pyrazolo[4,3-c]pyridine-3-carboxamide]",3,,"IC50 [1, 3]: 19 nM"
"CCC1CN(c2ccc(C(=O)N(C)C)cn2)Cc2c(C(=O)NCc3ccc(NC(=O)N(C)C)cc3)nn(C)c21 (racemic) [Example 77, rac-(R)-5-(5-(Dimethylcarbamoyl)pyridin-2-yl)-N-(4-(3,3-dimethylureido)benzyl)-7-ethyl-1-methyl-4,5,6,7-tetrahydro-1H-pyrazolo[4,3-c]pyridine-3-carboxamide]",,4,"IC50 [1, 5]: 45 nM"
"COc1nc(N2CCc3c(c(C(=O)NCc4ccc(NC(=O)N(C)C)cc4)nn3C(C)C)C2)ccc1[C@@]1(C)CCCNC1=O [Example 192, (R)-N-(4-(3,3-dimethylureido)benzyl)-1-isopropyl-5-(6-methoxy-5-(3-methyl-2-oxopiperidin-3-yl)pyridin-2-yl)-4,5,6,7-tetrahydro-1H-pyrazolo[4,3-c]pyridine-3-carboxamide]",1670,,"IC50 [1, 7]: 6440 nM"
"CC1CN(c2ccc(C(=O)N(C)C)cn2)Cc2c(C(=O)NCc3ccc(NC(=O)N(C)C)cc3)nn(C(C)C)c21 (racemic) [Example 95, rac-(R)-5-(5-(dimethylcarbamoyl)pyridin-2-yl)-N-(4-(3,3-dimethylureido)benzyl)-1-isopropyl-7-methyl-4,5,6,7-tetrahydro-1H-pyrazolo[4,3-c]pyridine-3-carboxamide]",,1,"IC50 [1, 5]: 6 nM"
"Cc1ccnn1-c1ccc(N2CCc3c(c(C(=O)NCc4ccc(NC(=O)N(C)C)cc4)nn3C(C)C)C2)nc1 [Example 41, N-(4-(3,3-Dimethylureido)benzyl)-1-isopropyl-5-(5-(5-methyl-1H-pyrazol-1-yl)pyridin-2-yl)-4,5,6,7-tetrahydro-1H-pyrazolo[4,3-c]pyridine-3-carboxamide]",,3,"IC50 [1, 5]: 93 nM"
"CCC1CN(c2ccc(C(=O)N(C)C)cn2)Cc2c(C(=O)NCc3ccc(NC(=O)N(C)C)cc3)nn(C(C)C)c21 (racemic) [Example 246, rac-(R)-5-(5-(dimethylcarbamoyl)pyridin-2-yl)-N-(4-(3,3-dimethylureido)benzyl)-7-ethyl-1-isopropyl-4,5,6,7-tetrahydro-1H-pyrazolo[4,3-c]pyridine-3-carboxamide]",1,,"IC50 [1, 7]: 10 nM"
